According to patent publication US4556674A, “2-Imino-pyrrolidines, process for their preparation, and therapeutic compositions containing same” (Laboratoires Jacques Logeais, priority 1983, dated 1985):

Assays:
[1] = Acute Toxicity in Mice; type: in vivo; details: mouse, in vivo, death rate recorded 9 days after treatment
Method: (§1) The compounds were administered orally or intraperitoneally, in the form of a solution in physiological saline (0,9 % NaCl), to male mice of Swiss strain (body weight: 22-25 g). The death rate was recorded 9 days after the treatment. […]

[2] = test system: collagen-induced blood-platelet aggregation (platelet rich plasma); assay: Collagen-induced blood-platelet aggregation; type: cell-based, rabbit; details: for minimal effective concentration: Oryctolagus cuniculus, Platelet, read-out: Collagen-induced blood-platelet aggregation: Threshold concentrations (inhibition of aggregation <50%)
Method: Collagen-induced blood-platelet aggregation
Blood samples were taken from the carotid artery in rabbits, using an anticoagulant (sodium citrate at 3.8%, 1 volume per 9 volumes of blood). The platelet rich plasma (PRP) was obtained by slow centrifugation (1200 RPM for 10 mn), and the platelet poor plasma (PPP) by rapid centrifugation (4500 RPM for 15 mn). The PRP samples were placed in the cell of an aggregometer, incubated at 37° C., after which was added thereto Michaelis buffer containing the test compound (0.04 ml), followed by the aggregating agent (collagen: 0.08 ml of collagen suspension previously incubated at 33° C. for 90 seconds). Blood-platelet aggregation is evidenced by the decrease of the optical density of the PRP (Initial O.D. of the PRP: 100%. Initial O.D. of the PPP=0%.)

[3] = test system: aconitine-induced dysrhythmia; assay: Anti-dysrhythmic activity, aconitine test in rats; type: in vivo, rat
Method: The animals are anesthetized with urethane (1 g/kg i.p.); an aconitine sulfate injection (27.5 μg/kg) is made in the pre-catheterized jugular vein, 30 minutes after administration by the same route of one of the test compounds. The time delay before the appearance of the first burst of dysrhythmia is noted on the electrocardiogram (D2 lead recording) and compared with reference animals.

[4] = test system: male mice of Swiss strain; assay: Acute Toxicity in Mice; type: in vivo; details: result in words
Method: as §1

[5] = test system: human plasma clots; assay: Fibrinolytic activity (lysis of human plasma clots); set-up: Concentration inducing lysis of the clot within 24 hours / Concentration inducing lysis of the clot within 48 hours: unit not given here; details: for Concentration inducing lysis of the clot within 24 hours / Concentration inducing lysis of the clot within 48 hours: human plasma clot, veronal buffer pH 7.2-7.4, 37° C.
Method: The following method was used.
Human plasma clots were prepared by recalcification (one drop of calcium thrombase at 20 U/ml per 0.5 ml of plasma), so that the clot formed around the hook of a glass rod. The clots were then suspended in buffered solutions (veronal buffer pH 7.2-7.4) maintained at 37° C. The eventual lysis of the clot is recorded after 24 hrs and 48 hrs incubation.

[6] = test system: α-adrenolytic activity; assay: α-adrenolytic activity observed in dog after an injection of nor-adrenalin; type: in vivo; details: result in words
[7] = test system: cardiac rhythm; details: described in DE-A-1770 752; cited from earlier work
[8] = rabbit PRP, 37° C., collagen, threshold concentrations
[9] = Rattus norvegicus, iv, read-out: Aconitine-induced dysrhythmia, percent animals protected

COc1ccc(CCN=C2CC(COc3ccc4c(c3)OCO4)CN2C)cc1OC (stereo not drawn) [Example 20, 1-Methyl-4-(3',4'-methylenedioxy-phenoxymethyl)-4-(3',4'-dimethoxy-phenethylimino)pyrrolidine]
mortality at 216 h ([1]; ip, 100 mg/kg i.p.): 80% | mortality at 216 h ([1]; po, 200 mg/kg p.o.): 0% | minimal effective concentration [2, 8]: 10 to 30 µg/mL | responders at 10 mg/kg [3, 9]: 100%

CN1CC(c2ccccc2)CC1=NCCOc1ccccc1 (stereo not drawn) [Example 3, 1-Methyl-4-phenyl-2-(2-phenoxy-ethylimino)pyrrolidine]
mortality at 216 h ([1]; ip, 200 mg/kg i.p.): 0% | mortality at 216 h ([1]; po, 200 mg/kg p.o.): 0% | toxicity [4]: least toxic in mice | minimal effective concentration [2, 8]: 1 to 3 µg/mL | anti-blood-platelet-aggregation activity ([2]; result in words): possesses an anti-blood-platelet aggregating activity | Concentration inducing lysis of the clot within 24 hours [5]: 10-20 | fibrinolytic activity ([5]; result in words): a fibrinolytic activity | responders at 10 mg/kg [3, 9]: 83% | anti-arrhythmic activity ([3]; result in words): an anti-arrhythmic activity | α-adrenolytic activity [6]: an α-adrenolytic activity

COc1ccc(CCN=C2CC(c3ccccc3)CN2C)cc1OC (stereo not drawn) [Example 4, 1-Methyl-4-phenyl-2-(3',4'-dimethoxy-phenethylimino)pyrrolidine]
mortality at 216 h ([1]; ip, 200 mg/kg i.p.): 100% | mortality at 216 h ([1]; po, 200 mg/kg p.o.): 0% | minimal effective concentration [2, 8]: 10 to 30 µg/mL | responders at 7.5 mg/kg [3, 9]: 90%

C=CCN1CC(c2ccccc2)CC1=NCCc1ccc(OC)c(OC)c1 (stereo not drawn) [Example 7, 1-Allyl-4-phenyl-2-(3',4'-dimethoxy-phenethyl-imino)pyrrolidine]
minimal effective concentration [2, 8]: 10 µg/mL | Concentration inducing lysis of the clot within 48 hours [5]: 10-20

COc1ccc(CCN=C2CC(COc3ccccc3)CN2C)cc1OC (stereo not drawn) [Example 18, 1-Methyl-4-phenoxymethyl-2-(3',4'-dimethoxy-phenethylimino)pyrrolidine]
mortality at 216 h ([1]; ip, 100 mg/kg i.p.): 40% | mortality at 216 h ([1]; po, 200 mg/kg p.o.): 0% | minimal effective concentration [2, 8]: 10 to 30 µg/mL | Concentration inducing lysis of the clot within 48 hours [5]: 20 | responders at 5 mg/kg [3, 9]: 100%

COc1ccc(CCN=C2CC(c3cc4ccccc4o3)CN2C)cc1OC (stereo not drawn) [Example 16]
mortality at 216 h ([1]; ip, 100 mg/kg i.p.): 100% | mortality at 216 h ([1]; po, 200 mg/kg p.o.): 0% | minimal effective concentration [2, 8]: 10 to 30 µg/mL | responders at 3 mg/kg [3, 9]: 80%

C#CCN=C1CC(c2cc3ccccc3o2)CN1C (stereo not drawn) [Example 10, 1-Methyl-4-(2-benzofuryl)-2-propargylimino-pyrrolidine]
minimal effective concentration [2, 8]: 100 µg/mL

CCCN=C1CC(c2cc3ccccc3o2)CN1C (stereo not drawn) [Example 8, 1-Methyl-4-(2-benzofuryl)-2-n.propyl-imino-pyrrolidine]
minimal effective concentration [2, 8]: 10 to 30 µg/mL | Concentration inducing lysis of the clot within 48 hours [5]: 20

CN1CC(c2cc3ccccc3o2)CC1=NCCOc1ccccc1 (stereo not drawn) [Example 15, 1-Methyl-4-(2-benzofuryl)-2-(2-phenoxy-ethylimino)-pyrrolidine]
mortality at 216 h ([1]; ip, 100 mg/kg i.p.): 100% | mortality at 216 h ([1]; po, 200 mg/kg p.o.): 10% | responders at 5 mg/kg [3, 9]: 80%

CN1CC(c2cc3ccccc3o2)CC1=NCCc1ccccc1 (stereo not drawn) [Example 13, 1-Methyl-4-(2-benzofuryl)-2-phenethylimino-pyrrolidine]
mortality at 216 h ([1]; ip, 100 mg/kg i.p.): 100% | mortality at 216 h ([1]; po, 200 mg/kg p.o.): 0% | minimal effective concentration [2, 8]: 3 to 30 µg/mL | Concentration inducing lysis of the clot within 24 hours [5]: 10 | Concentration inducing lysis of the clot within 48 hours [5]: 2.5-5 | responders at 5 mg/kg [3, 9]: 50%

CN1CC(c2cc3ccccc3o2)CC1=NCCO (stereo not drawn) [Example 11]
mortality at 216 h ([1]; ip, 200 mg/kg i.p.): 80% | mortality at 216 h ([1]; po, 200 mg/kg p.o.): 0% | minimal effective concentration [2, 8]: 10 to 100 µg/mL

CN1CC(COc2ccc3c(c2)OCO3)CC1=NCCOc1ccccc1 (stereo not drawn) [Example 19, 1-Methyl-4-(3',4'-methylenedioxy-phenoxymethyl)-2-(2-phenoxy-ethylimino)-pyrrolidine]
mortality at 216 h ([1]; ip, 100 mg/kg i.p.): 80% | mortality at 216 h ([1]; po, 200 mg/kg p.o.): 0% | minimal effective concentration [2, 8]: 3 to 10 µg/mL | responders at 2.5 mg/kg [3, 9]: 25%

CN1CC(COc2ccccc2)CC1=NCCOc1ccccc1 (stereo not drawn) [Example 17, 1-Methyl-4-phenoxymethyl-2-(2-phenoxy-ethylimino)-pyrrolidine]
minimal effective concentration [2, 8]: 3 µg/mL | responders at 10 mg/kg [3, 9]: 100%

CCN1CC(c2ccccc2)CC1=NCCc1ccc(OC)c(OC)c1 (stereo not drawn) [Example 5, 1-Ethyl-4-phenyl-2-(3',4'-dimethoxy-phenethylimino)pyrrolidine]
mortality at 216 h ([1]; ip, 100 mg/kg i.p.): 20% | mortality at 216 h ([1]; po, 200 mg/kg p.o.): 0% | minimal effective concentration [2, 8]: 3 to 10 µg/mL

COc1ccc(CCN=C2CCCN2C)cc1OC [Compound A, 1-methyl-2-[(3,4-dimethoxy-phenylethyl)imino]pyrrolidine, reference compound]
mortality at 216 h ([1]; ip, 200 mg/kg i.p.): 60% | mortality at 216 h ([1]; po, 200 mg/kg p.o.): 0% | Collagen-induced blood-platelet aggregation: Threshold concentrations (inhibition of aggregation <50%) [2, 8]: inactive | responders at 5 mg/kg [3, 9]: 0% | action on the cardiac rhythm [7]: decreasing action on the cardiac rhythm

COCCN=C1CC(c2cc3ccccc3o2)CN1C (stereo not drawn) [Example 12, 1-Methyl-4-(2-benzofuryl)-2-(2-methoxy-ethylimino)-pyrrolidine]
mortality at 216 h ([1]; ip, 100 mg/kg i.p.): 100% | mortality at 216 h ([1]; po, 200 mg/kg p.o.): 0% | minimal effective concentration [2, 8]: 3 to 30 µg/mL

CCCN1CC(c2ccccc2)CC1=NCCOc1ccccc1 (stereo not drawn) [Example 6, 1-n.Propyl-4-phenyl-2-(phenoxyethyl-imino)pyrrolidine]
minimal effective concentration [2, 8]: 1 to 3 µg/mL | Concentration inducing lysis of the clot within 48 hours [5]: 5-10

CC(Cc1ccccc1)N=C1CC(c2ccccc2)CN1C (stereo not drawn) [Example 2, 1-Methyl-4-phenyl-2-phenylisopropylimino-pyrrolidine]
mortality at 216 h ([1]; ip, 100 mg/kg i.p.): 100% | mortality at 216 h ([1]; po, 200 mg/kg p.o.): 83% | minimal effective concentration [2, 8]: 10 µg/mL | responders at 1 mg/kg [3, 9]: 67%

CN1CC(c2ccccc2)CC1=NCCc1ccccc1 (stereo not drawn) [Example 1, 1-Methyl-4-phenyl-2-phenylethylimino-pyrrolidine]
mortality at 216 h ([1]; ip, 100 mg/kg i.p.): 80% | mortality at 216 h ([1]; po, 200 mg/kg p.o.): 0% | responders at 1 mg/kg [3, 9]: 25%

CCc1ccccc1OCC1CC(=NCCc2ccc(OC)c(OC)c2)N(C)C1 (stereo not drawn) [Example 21, 1-Methyl-4-(2'-ethyl-phenoxymethyl)-2-(3',4'-dimethoxy-phenethylimino)pyrrolidine]
mortality at 216 h ([1]; ip, 33 mg/kg i.p.): 20% | mortality at 216 h ([1]; po, 200 mg/kg p.o.): 0% | minimal effective concentration [2, 8]: 3 µg/mL | Concentration inducing lysis of the clot within 48 hours [5]: 10-20 | responders at 7.5 mg/kg [3, 9]: 100%

C=CCN=C1CC(c2cc3ccccc3o2)CN1C (stereo not drawn) [Example 9, 1-Methyl-4-(2-benzofuryl)-2-allylimino-pyrrolidine]
mortality at 216 h ([1]; ip, 100 mg/kg i.p.): 60% | mortality at 216 h ([1]; po, 100 mg/kg p.o.): 0% | minimal effective concentration [2, 8]: 3 to 10 µg/mL

CC(Cc1ccccc1)N=C1CC(c2cc3ccccc3o2)CN1C (stereo not drawn) [Example 14, 1-Methyl-4-(2-benzofuryl)-2-phenylisopropyl-imino-pyrrolidine]
mortality at 216 h ([1]; ip, 100 mg/kg i.p.): 80% | mortality at 216 h ([1]; po, 200 mg/kg p.o.): 0% | minimal effective concentration [2, 8]: 3 to 10 µg/mL | responders at 5 mg/kg [3, 9]: 100%

CN1CC(COc2ccccc2C#N)CC1=NCCOc1ccccc1 (stereo not drawn) [Example 22, 1-Methyl-4-(2'-cyano-phenoxymethyl)-2-(2-phenoxyethylimino)-pyrrolidine]
mortality at 216 h ([1]; ip, 33 mg/kg i.p.): 40% | mortality at 216 h ([1]; po, 200 mg/kg p.o.): 0% | minimal effective concentration [2, 8]: 30 µg/mL | Concentration inducing lysis of the clot within 24 hours [5]: 20 | Concentration inducing lysis of the clot within 48 hours [5]: 5-10
